What was measured:
[1] = test system: whole blood cells of healthy donors; assay: Hemolysis assay, hemoglobin release; format: cell-based, human; settings: whole blood of healthy donors (n=6), 0.25-12.5 μM, 120 min incubation (text: 24h), absorption 540 nm, 1% SDS = maximum lysis
Experimental: Figure 6 Hemolysis and lymphotoxicity assays (A) Hemolytic activity of HDPs was determined by hemoglobin release from whole blood cells after 120 min incubation. Negative controls were left untreated whereas positive controls (=maximum lysis) were treated with 1% SDS. Hemolytic activity was quantified as described in the material and methods section. (B) PBLs were incubated in the presence of increasing HDP concentrations for a period of 24 hours. Viability was analyzed using Calcein-AM and quantified in comparison to untreated controls, which were set to be =1. […] Experiments were performed in triplicates. Values are given as the mean x-fold increase ± SD.
Hemolytic activity of HDPs was determined by hemoglobin release from whole blood cells after 120 min incubation. Briefly, whole blood of healthy donors (n=6) was seeded in 96-well plates and supplemented with HDPs at given concentrations (ranging from: 0.25 μM – 12.5 μM). Negative controls were left untreated and positive controls (=maximum lysis) were treated with 1% SDS. Following the incubation period, cell-free supernatants were transferred into a new 96-well plate and absorption was measured on a plate reader at 540 nm (reference wave length: 690 nm). Hemolytic activity was quantified according to the following formula: % hemolysis=((OD540nm sample−OD540nm buffer)/OD540nm max−OD540nm buffer)*100

HROC18 cells = assay: Apoptosis/necrosis assay, YO-PRO-1/PI flow cytometry; format: cell-based, human; settings: HROC18, 24h, background cell death subtracted
Experimental: (§1) Figure 5 Apoptosis/necrosis assay and Western blot analysis (A, B) HROC18 and HROC24 cells were exposed to increasing HDP concentrations for a period of 24 hours. Tumor cells were stained with YO-PRO-1 for detecting early and late apoptotic tumor cells. Prior to flow cytometric analysis, PI was added to detect necrotic cells, as well. (A) Representative dot plots showing HDP-treated HROC24 cells at a concentration of 5 μM. Lower right quadrant: early apoptotic cells; upper right quadrant: late apoptotic cells; upper left quadrant: necrotic cells. (B) For cell death quantification, values of background cell death (=untreated controls) were subtracted from values of HDP-treated cells. Left panel: HROC24 cell; right panel: HROC18 cells. (C, E) Representative western blot results showing HDP-treated HROC24 cells (20 μg of total protein per lane). (D, F) Quantitative analysis of BAX and HSP90 expression in HDP-treated cells was done as described in material & methods. Expression levels of untreated cells were set to be =1 and x-fold increases of HDP-exposed cells were calculated. […] Values are given as mean ± SD.
(§2) Cell death was quantified by YO-PRO-1 (Invitrogen) and PI double staining. Selected tumor cells (HROC24 and HROC18, 1 × 10^4 cells/well) were seeded in 24-well plates and incubated overnight. Thereafter, peptides were added in increasing concentrations (ranging from 0.25 μM – 12.5 μM). Untreated cells served as living control. Following a 24-hour incubation period, supernatants were collected; cells were trypsinized and washed in PBS. Cells were stained with YO-PRO-1 (final concentration: 0.2 μM) for 20 min at room temperature. Prior to flow cytometric analysis, PI was added at a final concentration of 100 μg/ml. For cell death quantification, values of background cell death (=untreated controls) were subtracted from values of HDP-treated cells.

[2] = test system: HDP-responsive cell lines (e.g. HROC24); assay: Western blot analysis of Bax and HSP90 expression; format: cell-based, human; settings: normalized to β-actin, untreated =1
Experimental: Figure 5 Apoptosis/necrosis assay and Western blot analysis (A, B) HROC18 and HROC24 cells were exposed to increasing HDP concentrations for a period of 24 hours. Tumor cells were stained with YO-PRO-1 for detecting early and late apoptotic tumor cells. Prior to flow cytometric analysis, PI was added to detect necrotic cells, as well. (A) Representative dot plots showing HDP-treated HROC24 cells at a concentration of 5 μM. Lower right quadrant: early apoptotic cells; upper right quadrant: late apoptotic cells; upper left quadrant: necrotic cells. (B) For cell death quantification, values of background cell death (=untreated controls) were subtracted from values of HDP-treated cells. […] (D, F) Quantitative analysis of BAX and HSP90 expression in HDP-treated cells was done as described in material & methods. Expression levels of untreated cells were set to be =1 and x-fold increases of HDP-exposed cells were calculated. […]
Cellular protein extracts were obtained from HDP-treated and control cells following incubation with lysis buffer (1 M Tris, pH 7.5, 5 M sodium chloride, 0.25 M ethylenediaminetetraacetic acid, 10% (v/v) triton-x 100, 4% (v:v) sodium azide, 0.1 M phenylmethane-sulfonylfluoride, protease inhibitor cocktail (Roche, Mannheim, Germany)) on ice for 30 min. […] Signal integrated intensities were quantified applying the Odyssey® software version 3.16. […]

HROC24 cells [3] = assay: Calcein-AM cell viability staining, 24h; format: cell-based, human; settings: HROC24, 24h, 0.25-12.5 μM
Experimental: (§3) Figure 4 HDP-mediated cytotoxicity towards tumor cells Quantitative analysis of direct cytotoxicity towards tumor cells following a 24h incubation period with increasing HDP concentrations. Viability was assessed using Calcein-AM staining. Remaining viable tumor cells were quantified in comparison to untreated controls, which were set to be =1. […] Values are given as the mean x-fold increase ± SD. *p<0.05 vs. NK11; **p<0.01 vs. NK11.
(§4) This assay is based on Calcein-acetoxymethylester (Calcein-AM; Invitrogen, Darmstadt, Germany) staining to detect viable cells within a culture. Tumor and normal (PBL) cells (1-2 × 10^4 cells/well in triplicates) were seeded in 96-well plates and incubated overnight. Thereafter, peptides were added in increasing concentrations (ranging from 0.25 μM – 12.5 μM). Untreated cells served as living cell control. Medium was removed after 1h or 24h, respectively. Calcein-AM ([…]) was added and incubated for 30 min (37°C, 5% CO2). Analysis was performed on a fluorescence multi-well plate reader (Tecan Infinite® M200, Crailsheim, Germany) at an excitation wavelength of 485 nm (emission 535 nm). For estimation of cell viability, the relative fluorescence intensities of Calcein-AM-stained non-treated cells (=live control) were set to be 1, and fluorescence intensities of samples were calculated. Data of at least three independent experiments each performed in […] are given.

HCT116 cells = assay: Calcein-AM cell viability staining, 24h; format: cell-based, human; settings: HCT116, 24h, 0.25-12.5 μM
Experimental: as §3, §4

[4] = FRET spectroscopy probe dilution assay, membrane intercalation; format: binding; settings: NBD-PE/rhodamine-PE, peptide 0.2-0.8 μM, 20 mM HEPES 150 mM NaCl pH 7.4, 37°C
Experimental: FRET spectroscopy served as a sensitive tool to detect lipid dependence of the membrane interaction of antimicrobial peptides. For this, all peptides were added to liposomes consisting of zwitterionic PC alone, of a mixture of PC and of negatively charged PS, as well as of pure PS (Figure 1). All lipid vesicles were doped with donor and acceptor dyes, peptides were added, and the emission intensities of both dyes were monitored over time. An increase of the fluorescence intensity of the donor (IDonor) and a simultaneous decrease of the fluorescence intensity of the acceptor dye (IAcceptor), i.e. a reduced FRET efficacy, indicated an increase in the overall mean distance between labeled phospholipids, and corresponded to an insertion of peptides into the lipid bilayer. For clarity, the IDonor/IAcceptor ratio is shown (Figure 1).
Figure 1 FRET spectroscopy. (A-C) Binding to and insertion of peptide C7A-D21K into phospholipid membranes (A) C7A-D21K was added at time point 50 s to liposomes (10 μM) consisting of pure PC, (B) a 90:10 molar mixture of PC:PS, and (C) of pure PS, each doubly doped with the fluorescently labeled FRET pair NBD-PE (donor) and rhodamine-PE (acceptor). Intercalation was monitored by measuring donor and acceptor fluorescence emission intensities. For better visualization only the quotient (IDonor/IAcceptor) is shown. Addition of the peptide solvent alone had no effect (dotted grey line). Peptide concentrations used: 0.2 μM (dotted black line, only in C), 0.4 μM (solid grey line, only in C), and 0.8 μM (solid black line). (D-F) Binding to and insertion of peptides at different concentrations into phospholipid membranes. (A) Peptides were added to liposomes consisting of pure PC, (B) a 90:10 molar mixture of PC:PS, and (C) of pure PS, each doubly doped with the fluorescently labeled phospholipid FRET pair NBD-PE (donor) and rhodamine-PE (acceptor). Intercalation was monitored by measuring donor and acceptor fluorescence intensities. The relative increase of the IDonor/IAcceptor ratio 250 s after peptide addition is shown (Increase of IDonor/IAcceptor (%) = (IDonor/IAcceptor (peptide) - IDonor/IAcceptor (control))*100). Peptide concentrations used: 0.2 μM (open bars), 0.4 μM (grey bars), and 0.8 μM (black bars).
Intercalation of peptides into liposome membranes was determined by FRET spectroscopy applied as a probe dilution assay. Liposomes were prepared by dissolving appropriate lipid mixtures (pure PC, a 90:10 molar mixture of PC:PS, as well as pure PS, each doped with 1% of the donor dye NBD-PE and 1% of the acceptor dye rhodamine-PE) in chloroform and drying them under a gentle stream of nitrogen. The resulting lipid film was dispersed in 20 mM HEPES, 150 mM NaCl, pH 7.4, sonicated for 30 min and subjected to 3-4 temperature cycles from 4 to 60°C with an incubation period of 30 min at each step. Lipid dispersions were stored at 4°C overnight before use. For the assay, donor fluorescence (NBD) was excited at 470 nm, and donor (NBD, ID at 531 nm) as well as acceptor (rhodamine, IA at 593 nm) emission intensities were monitored over time. An increase of the ratio of the donor fluorescence intensity to that of the acceptor fluorescence intensity (IDonor/I^Acceptor) was interpreted as a membrane intercalation event. This ratio depends on the Förster efficiency, therefore a rising value means that the mean distance separation of donor and acceptor dyes is raising. The assay was performed at 37°C.

HROC24 cells [5] = assay: Apoptosis/necrosis assay, YO-PRO-1/PI flow cytometry; format: cell-based, human
Experimental: as §1, §2

Compound: CC[C@H](C)[C@H](NC(=O)CN)C(=O)NCC(=O)N[C@@H](C)C(=O)N[C@H](C(=O)N[C@@H](CC(C)C)C(=O)N[C@@H](CCCCN)C(=O)N[C@H](C(=O)N[C@@H](CC(C)C)C(=O)N[C@H](C(=O)N[C@H](C(=O)NCC(=O)N[C@@H](CC(C)C)C(=O)N1CCC[C@H]1C(=O)N[C@@H](C)C(=O)N[C@@H](CC(C)C)C(=O)N[C@H](C(=O)N[C@@H](CO)C(=O)N[C@@H](Cc1c[nH]c2ccccc12)C(=O)N[C@H](C(=O)N[C@@H](CCCCN)C(=O)N[C@@H](CCCNC(=N)N)C(=O)N[C@@H](CCCCN)C(=O)N[C@@H](CCCNC(=N)N)C(=O)N[C@@H](CCC(N)=O)C(=O)N[C@@H](CCC(N)=O)C(N)=O)[C@@H](C)CC)[C@@H](C)CC)[C@@H](C)O)[C@@H](C)O)C(C)C)C(C)C [Melittin]
- hemolysis [1]: below 20%
- total killing (HROC18 cells): 71%
- HSP90 protein expression [2]: dose-dependently induced

Compound: KILRGVAKKIMRTFLRR ILTGKK [Peptide C7A-Δ, C7A shortened by deletion of four amino acid residues]
- Lytic activity towards tumor cells (HROC24 cells [3]): as effective as the reference compound Mellitin
- Lytic activity towards tumor cells (HCT116 cells): as effective as the reference compound Mellitin
- Membrane intercalation (increase of IDonor/IAcceptor) ([4]; PC:PS 90:10 liposomes 10 μM): slightly impaired
- Membrane intercalation (increase of IDonor/IAcceptor) ([4]; pure PS liposomes 10 μM): pronounced
- total killing (HROC18 cells): up to 60%
- Levels of viable HROC24 cells (HROC24 cells [5]; 24h, higher concentrations): 17%
- Tumor killing compared with Melittin (HROC24 cells [5]; HROC24, 24h): as effective in tumor killing as Melittin
